# Values of other authors in EP1269978A2, “Use of bis-resorcinyltriazine derivatives in cosmetic or dermatological preparations” (Beiersdorf AG, priority 2001, dated 2003).
# Conditions: n-Octanol / Wasser
smiles,measurement,value
CC1=C(/C=C/C(C)=C/C=C/C(C)=C/CO)C(C)(C)CCC1 [Retinol],log P-Wert,~7
